Reference: US20190054103A1, “METHOD OF TREATMENT OF TP53 WILD-TYPE TUMORS WITH 2',2'-DIFLUORO-5-AZA-2'-DEOXYCYTIDINE OR PRODRUGS THEREOF” (priority 2016, published 2019)

Assays:
Assay in all cases: NCI 60 Cell Line Panel growth inhibition
Format in all cases: cell-based, human
A498 = settings: A498, Renal cancer, TP53 wild type
From the text: (§1) The NCI-60 Cell Line Panel was assembled by the National Cancer Institute as an in vitro anticancer drug screen. The panel comprises human cancer cell lines representing nine different tissues of origin: breast, colon, central nervous system, renal, lung, melanoma, ovarian, prostate, and hematogenous. […] See, e.g., Leroy et al. “Analysis of TP53 Mutation Status in Human Cancer Cell Lines: a Reassesment” Hum Mutat 2014 35(6): 756-765.

A549/ATCC = settings: Lung-NSCL, TP53 wild type
From the text: as §1

CAKI-1 = settings: CAKI-1, Renal cancer, TP53 wild type
From the text: as §1

CCRF-CEM = settings: Leukemia, TP53 null/mutant
From the text: as §1

DU-145 = settings: DU-145, Prostate cancer, TP53 null/mutant
From the text: as §1

EKVX = settings: Lung-NSCL, TP53 null/mutant
From the text: as §1

HCC-2998 = settings: HCC-2998, Colon cancer, TP53 null/mutant
From the text: as §1

HCT-116 = settings: HCT-116, Colon cancer, TP53 wild type
From the text: as §1

HCT-15 = settings: HCT-15, Colon cancer, TP53 null/mutant
From the text: as §1

HL-60 = settings: HL-60, Leukemia, TP53 null/mutant
From the text: as §1

HOP-92 = settings: HOP-92, Lung-NSCL, TP53 null/mutant
From the text: as §1

HS 578T = settings: Breast cancer, TP53 null/mutant
From the text: as §1

HT29 = settings: HT29, Colon cancer, TP53 null/mutant
From the text: as §1

IGROV-1 = settings: IGROV-1, Ovarian cancer, TP53 null/mutant
From the text: as §1

K-562 = settings: K-562, Leukemia, TP53 null/mutant
From the text: as §1

KM12 = settings: KM12, Colon cancer, TP53 null/mutant
From the text: as §1

M14 = settings: M14, Melanoma, TP53 null/mutant
From the text: as §1

MALME-3M = settings: Melanoma, TP53 wild type
From the text: as §1

MDA-MB-435 = settings: MDA-MB-435, Melanoma, TP53 null/mutant
From the text: as §1

NCI-H23 = settings: NCI-H23, Lung-NSCL, TP53 null/mutant
From the text: as §1

NCI-H322M = settings: Lung-NSCL, TP53 null/mutant
From the text: as §1

NCI-H522 = settings: NCI-H522, Lung-NSCL, TP53 null/mutant
From the text: as §1

NCI/ADR-RES = settings: Ovarian cancer, TP53 null/mutant
From the text: as §1

OVCAR-8 = settings: OVCAR-8, Ovarian cancer, TP53 null/mutant
From the text: as §1

PC-3 = settings: PC-3, Prostate cancer, TP53 null/mutant
From the text: as §1

RPMI-8226 = settings: RPMI-8226, Leukemia, TP53 null/mutant
From the text: as §1

SF-268 = settings: SF-268, CNS cancer, TP53 null/mutant
From the text: as §1

SF-539 = settings: SF-539, CNS cancer, TP53 null/mutant
From the text: as §1

SK-MEL-28 = settings: SK-MEL-28, Melanoma, TP53 null/mutant
From the text: as §1

SK-MEL-2 = settings: SK-MEL-2, Melanoma, TP53 null/mutant
From the text: as §1

SK-MEL-5 = settings: SK-MEL-5, Melanoma, TP53 wild type
From the text: as §1

SK-OV-3 = settings: SK-OV-3, Ovarian cancer, TP53 null/mutant
From the text: as §1

SN12C = settings: Renal cancer, TP53 null/mutant
From the text: as §1

SNB-75 = settings: SNB-75, CNS cancer, TP53 null/mutant
From the text: as §1

TK-10 = settings: TK-10, Renal cancer, TP53 null/mutant
From the text: as §1

UACC-62 = settings: UACC-62, Melanoma, TP53 wild type
From the text: as §1

UO-31 = settings: UO-31, Renal cancer, TP53 wild type
From the text: as §1

Nc1ncn([C@@H]2O[C@H](CO)[C@@H](O)C2(F)F)c(=O)n1 [NUC013, 4-amino-1-((2R,4R,5R)-3,3-difluoro-4-hydroxy-5-(hydroxymethyl)tetrahydrofuran-2-yl)-1,3,5-triazin-2(1H)-one]
Growth (%) at 10 μM (A498): 38.04%
Growth (%) at 10 μM (A549/ATCC): 37.91%
Growth (%) at 10 μM (CAKI-1): 27.86%
Growth (%) at 10 μM (CCRF-CEM): 23.67%
Growth (%) at 10 μM (DU-145): 43.48%
Growth (%) at 10 μM (EKVX): 86.06%
Growth (%) at 10 μM (HCC-2998): 60.44%
Growth (%) at 10 μM (HCT-116): 29.84%
Growth (%) at 10 μM (HCT-15): 52.19%
Growth (%) at 10 μM (HL-60): 25.23%
Growth (%) at 10 μM (HOP-92): 34.34%
Growth (%) at 10 μM (HS 578T): 90.37%
Growth (%) at 10 μM (HT29): 70.09%
Growth (%) at 10 μM (IGROV-1): 56.77%
Growth (%) at 10 μM (K-562): 65.66%
Growth (%) at 10 μM (KM12): 61.18%
Growth (%) at 10 μM (M14): 15.55%
Growth (%) at 10 μM (MALME-3M): 67.90%
Growth (%) at 10 μM (MDA-MB-435): 53.04%
Growth (%) at 10 μM (NCI-H23): 30.61%
Growth (%) at 10 μM (NCI-H322M): 70.00%
Growth (%) at 10 μM (NCI-H522): 86.91%
Growth (%) at 10 μM (NCI/ADR-RES): 42.13%
Growth (%) at 10 μM (OVCAR-8): 49.95%
Growth (%) at 10 μM (PC-3): 63.57%
Growth (%) at 10 μM (RPMI-8226): 39.24%
Growth (%) at 10 μM (SF-268): 65.39%
Growth (%) at 10 μM (SF-539): 22.25%
Growth (%) at 10 μM (SK-MEL-28): 78.46%
Growth (%) at 10 μM (SK-MEL-2): 104.47%
Growth (%) at 10 μM (SK-MEL-5): 70.84%
Growth (%) at 10 μM (SK-OV-3): 71.09%
Growth (%) at 10 μM (SN12C): 51.65%
Growth (%) at 10 μM (SNB-75): 64.95%
Growth (%) at 10 μM (TK-10): 91.13%
Growth (%) at 10 μM (UACC-62): 47.29%
Growth (%) at 10 μM (UO-31): 39.00%
